Results published in US6420409B1, “Benzimidazole derivatives” (Fujisawa Pharmaceutical Co., Ltd., priority 1997, dated 2002).

Test system: db/db mice
Test: Test for Activity of Decreasing Plasma Glucose using db/db Mice
Format: in vivo
Conditions: female db/db mice, dose of 10 mg/kg, mixed with powdered chow (0.01%), 14 days, difference between db/db and +/+ mouse groups defined as 100%
Excerpt: Test Example: Test for Activity of Decreasing Plasma Glucose using db/db Mice
1-(Isoquinolin-3-ylmethyl)-2-methyl-6-(1-pentanesulfonyl-carbamoyl)benzimidazole (13)
Five-week-old female mice [C57BL/KsJ-dbm db+/db+, C57BL/KsJ-dbm +m/+m (Jackson Laboratory) were purchased, and were kept for 2 to 3 weeks. Then, these mice were used in the test.
A test compound was mixed with a powdered chow (CE-2, made by Nippon Clea) using a mortar. The mixing ratio was 0.01%. The mixed chow was changed twice a week. The feed amount and the remaining amount were recorded, and the intake was calculated from the difference therebetween.
The female db/db mice were grouped according to the body weight, the plasma glucose and the plasma triglyceride concentrations. […] Plasma glucose, triglyceride, and insulin concentrations were measured on day 0 and day 14 as well as plasma glucose and triglyceride concentrations on day 7. The body weight was measured on day 0, day 7 and day 14. […]
The plasma glucose was measured by a glucose oxidase method (Glucose CII-Test Wako made by Wako Pure Chemical Industries, Ltd.) using from 10 to 15 μl of plasma. The plasma triglyceride concentration was measured by a GPO-p-chlorophenol method (Triglyceride G-Test Wako made by Wako Pure Chemical Industries, Ltd.) or a GPO-DAOS method (Triglyceride E-Test Wako) using from 10 to 15 μl of plasma. […]

## CCCCCS(=O)(=O)NC(=O)c1ccc2nc(C)n(Cc3cc4ccccc4cn3)c2c1 [Compound 13, 1-(Isoquinolin-3-ylmethyl)-2-methyl-6-(1-pentane-sulfonylcarbamoyl)benzimidazole]
  plasma glucose decreasing activity: 44%
Plasma triglyceride
  TG concentration-decreasing activity: 77%
